Assay results reported in PubChem BioAssay (NCI).
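Values below derive from 48-hour exposures of cells grown in 96-well plates, with endpoints linearly interpolated between the two concentrations bracketing the appropriate inhibition level. GI50 is the concentration that inhibits growth by half. TGI denotes the concentration required for complete inhibition of growth.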

Key:
Experiment in all cases: inhibition of tumour cell growth, NCI panel, 48 h
SN12C renal = system: SN12C renal
SW-620 colon = system: SW-620 colon
A498 renal = system: A498 renal
KM12 colon = system: KM12 colon
MDA-MB-435 = system: MDA-MB-435
UACC-62 melanoma = system: UACC-62 melanoma
MCF7 breast = system: MCF7 breast
HT29 colon = system: HT29 colon
TK-10 renal = system: TK-10 renal
HOP-62 NSCLC = system: HOP-62 NSCLC
DU-145 prostate = system: DU-145 prostate

SMILES | TGI (SN12C renal) [µM] | TGI (SW-620 colon) [µM] | TGI (A498 renal) [µM] | TGI (KM12 colon) [µM] | TGI (MDA-MB-435) [µM] | TGI (UACC-62 melanoma) [µM] | TGI (MCF7 breast) [µM] | TGI (HT29 colon) [µM] | TGI (TK-10 renal) [µM] | TGI (HOP-62 NSCLC) [µM] | TGI (DU-145 prostate) [µM] | GI50 (SN12C renal) [µM] | GI50 (SW-620 colon) [µM] | GI50 (A498 renal) [µM] | GI50 (KM12 colon) [µM] | GI50 (UACC-62 melanoma) [µM] | GI50 (MCF7 breast) [µM] | GI50 (HT29 colon) [µM] | GI50 (TK-10 renal) [µM] | GI50 (DU-145 prostate) [µM]
CC(CSC(=N)N)C(N)=O (stereo not given) | > 100 | > 100 | > 100 | > 100 | > 100 | > 100 | > 100 | > 100 | > 100 | > 100 | > 100 |  |  |  |  |  |  |  |  | 
Clc1ccc(Cl)c(N=Nc2cc3c4c(c2)CCN4CCC3)c1 | > 10 | > 10 | > 10 | > 10 | > 10 | > 10 | > 10 | > 10 | > 10 | > 10 | > 10 |  |  |  |  |  |  |  |  | 
COc1ccc(C(O)/C(=N/N)c2nc3ccc(Cl)cc3[nH]c2=O)cc1 (stereo not given) | > 100 | > 100 | > 100 | > 100 | > 100 | > 100 | > 100 | > 100 | > 100 | > 100 | > 100 |  |  |  |  |  |  |  |  | 
CC(=O)CCCCn1c(=O)c2c(nc(Br)n2C)n(C)c1=O | > 100 | > 100 | > 100 | > 100 | > 100 | > 100 | > 100 | > 100 | > 100 | > 100 | > 100 |  |  |  |  |  |  |  |  | 
Nc1nc(Nc2ccc(Cl)c(Cl)c2)nc2nc[nH]c12 | 44.6 | 41.6 | 21.7 | 28.6 | 32 | 29 | 45.6 | 30.6 | 28.3 | 26.1 | 21.6 |  |  |  |  |  |  |  |  | 
O[C@]12C=C(c3nccc4c3[nH]c3ccccc34)[C@@H]3CCN(CCCC/C=C\CC1)C[C@@]31CC3/C=C\CCCCN3[C@H]12 (stereo not given in full) | 2.84 | 4.65 | 2.83 | 1.3 | 1.53 | 0.159 | 1.83 | 1.36 | 1.95 | 0.525 | 2.86 |  |  |  |  |  |  |  |  | 
FC(F)(F)c1ccccc1C1SCC2=Nc3ccccc3CN21 (stereo not given) | > 100 | > 100 | 35.3 | 25.5 | 93.1 | 26.1 | 26.5 | 30 | 29.9 | 23.1 | 25.4 |  |  |  |  |  |  |  |  | 
FC(F)(F)c1ccc(C2ON=C(c3ccccc3)N2C23CC4CC(CC(C4)C2)C3)cc1 (stereo not given) | > 10 | > 10 | > 10 | > 10 | > 10 | > 10 | > 10 | > 10 | > 10 | > 10 | > 10 |  |  |  |  |  |  |  |  | 
CC(C)=CCCC(C)(OC1OC(CO)C(O)C(O)C1O)C1CCC2(C)C1C(O)CC1C3(C)CCC(O)C(C)(C)C3C(OC3OC(CO)C(O)C(O)C3OC3OC(C)C(O)C(O)C3O)CC12C (stereo not given) (tested in a mixture with another compound) | > 75 | > 75 | > 75 | > 75 | > 75 | > 75 | > 75 | > 75 | > 75 | > 75 | > 75 |  |  |  |  |  |  |  |  | 
C[C@@H](CC(O)C(O)C(C)(C)O)C1CCC23CC12CCC1[C@@]2(C)CCC(O)C(C)(C)C2CC(OC2OC(CO)C(O)C(O)C2O)[C@]13C (stereo not given in full) | > 10 | > 10 | > 10 | > 10 | > 10 | > 10 | > 10 | > 10 | > 10 | > 10 | > 10 |  |  |  |  |  |  |  |  | 
O=C1Oc2ccccc2C1C/C(=N\Nc1ccccc1)c1ccccc1O (stereo not given) | > 100 | > 100 | > 100 | 45.8 | 76.2 | > 100 | > 100 | 78.5 | > 100 | > 100 | > 100 |  |  |  |  |  |  |  |  | 
CN(C)c1ccc(/C=C/C(=O)c2ccc(O)cc2)cc1 | > 100 | > 100 | > 65.7 | > 100 | 3.22 | 19.3 | > 100 | 29.9 | > 100 | > 100 | 63.5 |  |  |  |  |  |  |  |  | 
COc1ccc(C2c3cc4c(cc3OC(NNc3ccccc3)C2C)OCO4)cc1 (stereo not given) | 50.8 | > 100 | 76.9 | > 100 | > 100 | 59.5 | 44.7 | 51.7 | > 100 | 20.2 | > 100 |  |  |  |  |  |  |  |  | 
Clc1ccc(Nc2nnc(CNc3ccc(-c4nnc(Nc5ccc(Cl)cc5)s4)cc3)s2)cc1 | > 100 | > 100 | > 100 | 36.6 | > 100 | 64.9 | > 100 | 24.4 | > 100 | > 100 | > 100 |  |  |  |  |  |  |  |  | 
CC(C)C1CNC(=O)C2(C=NC(C(C)C)CNC(=O)C3(C=N1)CCCO3)CCCO2 (stereo not given) | > 10 | > 10 | > 10 | > 10 | > 10 | > 10 | > 10 | > 10 | > 10 | > 10 | > 10 |  |  |  |  |  |  |  |  | 
[N-]=[N+]=Nc1ccccc1-c1ccccc1[N+](=O)[O-] | > 100 | > 100 | > 100 | > 100 | > 100 | > 100 | > 100 | > 100 | > 100 | > 100 | > 100 |  |  |  |  |  |  |  |  | 

SMILES | TGI (SN12C renal) [µM] | TGI (SW-620 colon) [µM] | TGI (A498 renal) [µM] | TGI (KM12 colon) [µM] | TGI (MDA-MB-435) [µM] | TGI (UACC-62 melanoma) [µM] | TGI (MCF7 breast) [µM] | TGI (HT29 colon) [µM] | TGI (TK-10 renal) [µM] | TGI (HOP-62 NSCLC) [µM] | TGI (DU-145 prostate) [µM] | GI50 (SN12C renal) [µM] | GI50 (SW-620 colon) [µM] | GI50 (A498 renal) [µM] | GI50 (KM12 colon) [µM] | GI50 (UACC-62 melanoma) [µM] | GI50 (MCF7 breast) [µM] | GI50 (HT29 colon) [µM] | GI50 (TK-10 renal) [µM] | GI50 (DU-145 prostate) [µM]
CCOC(=O)C(NC(=O)OCc1ccccc1)C(=O)O (stereo not given) | > 100 | > 100 | > 100 | > 100 | > 100 | > 100 | > 100 | > 100 | > 100 | > 100 | > 100 |  |  |  |  |  |  |  |  | 
CC(=O)OI1NC(=O)c2ccccc21 | > 100 | > 100 | > 100 | > 100 | > 100 | > 100 | > 100 | > 100 | > 100 | > 100 | > 100 |  |  |  |  |  |  |  |  | 
CSc1ncnc2c1cnn2Cc1cn(COCCO)nn1 | > 100 | > 100 | > 100 | > 100 | 42.3 | > 100 | > 100 | 55.4 | > 100 | > 100 | > 100 |  |  |  |  |  |  |  |  | 
Brc1ccc(C2C3CSc4ccccc4C3=NN2c2ccccc2)cc1 (stereo not given) | > 100 | > 100 | > 100 | > 100 | > 100 | > 100 | > 100 | > 100 | > 100 | > 100 | > 100 |  |  |  |  |  |  |  |  | 
O=C1CCN2c3ccccc3[C@H]3Cc4cccc(c4[C@@H]2C3)CCO1 | 37.4 | > 100 | > 100 | > 100 | > 100 | > 100 | > 100 | > 100 | > 100 | > 100 | > 100 |  |  |  |  |  |  |  |  | 
CC(C)Oc1c(C2(c3ccccc3)SCCCS2)c(=O)c1=O | > 100 | > 100 | > 100 | > 100 | > 100 | > 100 | > 100 | > 100 | > 100 | > 100 | > 100 |  |  |  |  |  |  |  |  | 
C1CNOCCCONCCCNOCCCONC1 | > 100 | > 100 | > 100 | > 100 | > 100 | > 100 | > 100 | > 100 | 84.5 | > 100 | > 100 |  |  |  |  |  |  |  |  | 
CC(C)OC(=O)c1ccc(NCc2cc(O)ccc2O)cc1 | 7.3 | 17.7 | > 100 | 12.5 | 12.9 | 30.9 | 18.9 | 31.5 | 14.7 | 31.9 | 15.4 |  |  |  |  |  |  |  |  | 
CC1(C)C2CCC3CC(CCC#N)CCC3C21C#N (stereo not given) | > 100 | > 100 | > 100 | > 100 | > 100 | > 100 | > 100 | > 100 | > 100 | > 100 | > 100 |  |  |  |  |  |  |  |  | 
C#CC[C@@H]1C(=O)N(Cc2ccc(OC)cc2)[C@@H](C(C)C)C(=O)N1Cc1ccc(OC)cc1 | > 100 | > 100 | > 100 | > 100 | > 100 | > 100 | 54.9 | 55.1 | > 100 | > 100 | > 100 |  |  |  |  |  |  |  |  | 
CC1=NN=C(C)C1N=Nc1ccc2nc(C)[nH]c2c1 | > 100 | > 100 | 38.2 | > 100 | > 100 | > 79.8 | > 100 | > 100 | > 100 | > 100 | > 100 |  |  |  |  |  |  |  |  | 
CCN(CC)CCCNc1c2c(Cl)cc(Cl)cc2nc2nc(=O)[nH]c(C)c12 | > 100 | 37.9 | > 100 | 31.1 | 49.2 | > 100 | 53.9 | 36.4 | > 100 | 64.7 | > 100 |  |  |  |  |  |  |  |  | 
Cn1c(=O)c2[nH]c(N=O)nc2n(C)c1=O | > 100 | > 100 | > 100 | > 100 | > 100 | > 100 | > 100 | > 100 | > 100 | > 100 | > 100 |  |  |  |  |  |  |  |  | 
NS(=O)(=O)c1ccc(NC(=O)N/N=C/c2ccccc2O)cc1 | > 100 | > 100 | > 100 | > 100 | 55.6 | > 100 | > 100 | > 100 | > 100 | > 100 | > 100 |  |  |  |  |  |  |  |  | 
COc1nc(N=P(c2ccccc2)(c2ccccc2)c2ccccc2)cc(=O)n1C | > 100 | > 100 | > 100 | > 100 | > 100 | > 100 | > 100 | > 100 | > 100 | > 100 | > 100 |  |  |  |  |  |  |  |  | 
COC1(CC[C@@H](C)COC2OC(CO)C(O)C(O)C2O)O[C@H]2C[C@H]3[C@@H]4CC=C5C[C@@H](OC6OC(CO)C(OC7OC(C)C(O)C(O)C7O)C(O)C6OC6OC(C)C(O)C(O)C6O)CC[C@]5(C)[C@H]4CC[C@]3(C)[C@H]2[C@@H]1C (stereo not given in full) |  | 2.21 | 9.76 | 2.65 | 4.18 | 16 | 12.9 | 4.3 | 23.1 | 4.04 | 4.17 | 2.87 | 0.795 | 3.86 | 1.01 | 2.31 | 3.74 | 1.89 | 8.04 | 1.92
